Consider 22 compounds from patent publication US10508085B2, “Compounds and methods for IDO and TDO modulation, and indications therefor” (Plexxikon Inc., priority 2016, dated 2019).

Read-outs that look alike come from different tables or passages of the source.

In test [1] the target is T1, human IDO (IDO1-expressing HEK293 cells) (Homo sapiens, UniProt P14902).
T1 construct: expressed in transfected cells
Put plainly: Cell based kynurenine assay, IDO1-expressing HEK293 cell clones. The following applies: IDO1-expressing HEK293 cells, geometric mean, read-out: HEK293 IDO1 Kynurenine GMean IC50 (μM) (Cellular Assay). Put shortly: (§1)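 HEK293 clones stably expressing human IDO1 or human TDO (CMV promoter), 2.5×10^4 cells/well, given serial compound dilutions for 24 h. Kynurenine measured in supernatant; inhibition relative to cell/0.2% DMSO and media-only controls. IC50 by nonlinear regression.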

For test [2], the target named is T2, Human Tryptophan 2,3-dioxygenase (TDO) (Homo sapiens, UniProt P48775).
T2 construct: His tag (N); made in house; host or cells: E. coli
T2 sequence (P48775 whole entry): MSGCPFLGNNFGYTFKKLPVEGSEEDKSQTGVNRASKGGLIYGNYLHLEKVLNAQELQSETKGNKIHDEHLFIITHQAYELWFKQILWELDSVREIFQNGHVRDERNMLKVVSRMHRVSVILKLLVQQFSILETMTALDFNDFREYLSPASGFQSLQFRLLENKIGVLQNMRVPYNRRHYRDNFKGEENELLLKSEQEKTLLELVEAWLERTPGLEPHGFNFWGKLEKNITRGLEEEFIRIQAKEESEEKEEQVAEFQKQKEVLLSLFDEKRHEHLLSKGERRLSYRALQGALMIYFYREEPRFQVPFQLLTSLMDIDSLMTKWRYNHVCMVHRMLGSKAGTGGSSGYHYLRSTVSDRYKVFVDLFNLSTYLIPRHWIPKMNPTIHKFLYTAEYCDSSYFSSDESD
Put plainly: Human TDO enzymatic assay (kynurenine level). The format is biochemical. The following applies: 1 nM TDO, 350 μM L-Trp; geometric mean; read-out: TDO GMean: IC50 (μM) (Biochemical Assay). Put shortly:
(§2)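 N-His human IDO (6 nM, 10 μM L-Trp, 5 μM methylene blue, 20 min) or TDO (1 nM, 350 μM L-Trp, 0.4 μM methylene blue, 70 min) run at room temp in pH 6.5 phosphate with ascorbate, catalase, Tween 20. TCA stop, 30 min 50 °C converts N-formylkynurenine to kynurenine; IC50 by nonlinear regression.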

Test [3] has as its target T3, human TDO (TDO-expressing HEK293 cells) (Homo sapiens, UniProt P48775).
T3 construct: expressed in transfected cells
Put plainly: Cell based kynurenine assay, TDO-expressing HEK293 cell clones. Particulars: TDO-expressing HEK293 cells, geometric mean, read-out: HEK293 TDO Kynurenine GMean IC50 (μM) (Cellular Assay). Summed up:
as §1

The target of test [4] is T4, Human Indoleamine 2,3-dioxygenase (IDO) (Homo sapiens, UniProt P14902).
T4 construct: His tag (N); made in house; host or cells: E. coli
T4 sequence (P14902 whole entry): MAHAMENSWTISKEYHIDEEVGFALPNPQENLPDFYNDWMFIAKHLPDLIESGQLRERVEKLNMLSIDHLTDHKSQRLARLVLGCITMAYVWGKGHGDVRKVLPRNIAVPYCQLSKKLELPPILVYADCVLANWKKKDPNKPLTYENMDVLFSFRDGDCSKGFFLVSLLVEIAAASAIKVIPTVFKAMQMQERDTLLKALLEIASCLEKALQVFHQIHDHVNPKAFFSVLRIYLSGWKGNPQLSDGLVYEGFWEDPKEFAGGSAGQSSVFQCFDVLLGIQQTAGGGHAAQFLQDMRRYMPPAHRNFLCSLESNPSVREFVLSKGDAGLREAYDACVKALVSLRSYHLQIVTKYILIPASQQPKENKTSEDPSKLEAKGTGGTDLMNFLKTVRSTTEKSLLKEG
Put plainly: Human IDO enzymatic assay (kynurenine level). The format is biochemical. The following applies: 6 nM IDO, 10 μM L-Trp; geometric mean; read-out: IDO1 GMean: IC50 (μM) (Biochemical Assay). Summed up: as §2

T1 sequence (P14902 whole entry): as above
T3 sequence (P48775 whole entry): as the sequence (P48775 whole entry) above

In the case of `OC(c1cc(Cl)cc2cn[nH]c12)C12CC(C1)C2` (stereo not shown) [Compound P-0209, bicyclo[1.1.1]pentan-1-yl(5-chloro-1H-indazol-7-yl)methanol], the half-inhibitory concentration (IC50) in test [1] (24 hours incubation), in test [2], in test [3] (24 hours incubation) and in test [4] was 0.0001 to 10 µM in each case.

For `COCC(=O)N1CCC(C(F)(F)C(O)c2cc(Cl)cc3cn[nH]c23)CC1` (stereo not shown) [Compound P-0350, 1-(4-(2-(5-chloro-1H-indazol-7-yl)-1,1-difluoro-2-hydroxyethyl)piperidin-1-yl)-2-methoxyethan-1-one], the IC50 in test [1] (24 hours incubation), in test [2], in test [3] (24 hours incubation) and in test [4] was 0.0001 to 10 µM in each case.

Take `OC(c1c2c(cc3cn[nH]c13)CC2)C(F)(F)C1CCOCC1` (stereo not shown) [Compound P-0278, 1-(5,6-dihydro-1H-cyclobuta[f]indazol-7-yl)-2,2-difluoro-2-(tetrahydro-2H-pyran-4-yl)ethan-1-ol]: the IC50 (commonly the midpoint of a concentration-inhibition curve) in test [1] (24 hours incubation) was 0.0001 to 10 µM; in test [2], 0.0001 to 10 µM; in test [3] (24 hours incubation), more than 10 µM; in test [4], 0.0001 to 10 µM.

Consider `O=C(C1CC1)N1CCC(C(F)(F)C(O)c2c(F)c(Cl)cc3cn[nH]c23)CC1` (stereo not shown) [Compound P-0343, (4-(2-(5-chloro-6-fluoro-1H-indazol-7-yl)-1,1-difluoro-2-hydroxyethyl)piperidin-1-yl)(cyclopropyl) methanone], for which the IC50 in test [1] (24 hours incubation), in test [2], in test [3] (24 hours incubation) and in test [4] was 0.0001 to 10 µM throughout.

As to `CC(C)(C1CCN(C(=O)Nc2ccccc2)CC1)[C@H](O)c1cc(Cl)cc2cn[nH]c12` [Compound P-0563, (S)-4-(1-(5-chloro-1H-indazol-7-yl)-1-hydroxy-2-methylpropan-2-yl)-N-phenylpiperidine-1-carboxamide], the IC50 in test [1] (24 hours), in test [2], in test [3] (24 hours) and in test [4] was 0.0001 to 10 µM each time.

Regarding `OC1(c2cc(Cl)cc3[nH]ncc23)CC2(CC2)C1` [Compound P-0352, 5-(6-chloro-1H-indazol-4-yl)spiro[2.3] hexan-5-ol], the half-inhibitory concentration (IC50) in test [1] (24 hours incubation) is more than 10 µM; in test [2], 0.0001 to 10 µM; in test [3] (24 hours incubation) it was 0.0001 to 10 µM; in test [4] it was 10 to 100 µM.

Turning to `CC1(C(O)c2c(Cl)ccc3cn[nH]c23)CCCCC1` (stereo not shown) [Compound P-0207, (6-chloro-1H-indazol-7-yl)(1-methylcyclohexyl)methanol], the IC50 in test [1] (24 hours incubation) lay within 0.0001 to 10 µM; in test [2] it was 10 to 100 µM; in test [3] (24 hours incubation), 0.0001 to 10 µM; in test [4], 0.0001 to 10 µM.

Regarding `OC(c1c(F)c(Cl)cc2cn[nH]c12)C12CC3CC(CC(C3)C1)C2` [Compound P-0257, ((1S,3s)-adamantan-1-yl)(5-chloro-6-fluoro-1H-indazol-7-yl)methanol], the IC50 in test [1] (24 hours incubation), in test [2], in test [3] (24 hours incubation) and in test [4] was 0.0001 to 10 µM throughout.

Take `CC(C)(C1CCN(C(=O)Nc2ccc(Cl)cc2)CC1)[C@@H](O)c1cc(Cl)cc2cn[nH]c12` [Compound P-0433, (R)-4-(1-(5-chloro-1H-indazol-7-yl)-1-hydroxy-2-methylpropan-2-yl)-N-(4-chlorophenyl) piperidine-1-carboxamide]: the IC50 in test [1] (24 hours) was 0.0001 to 10 µM; in test [2], 0.0001 to 10 µM; in test [3] (24 hours), 0.0001 to 10 µM; in test [4] it was more than 200 µM.

For the compound `CC(C)(C)NC(=O)N1CCC(C(C)(C)C(O)c2cc(Cl)cc3cn[nH]c23)CC1` (stereo not shown) [Compound P-0356, N-(tert-butyl)-4-(1-(5-chloro-1H-indazol-7-yl)-1-hydroxy-2-methylpropan-2-yl)piperidine-1-carboxamide], the IC50 in test [1] (24 hours incubation), in test [2], in test [3] (24 hours incubation) and in test [4] was 0.0001 to 10 µM in each case.

Turning to `CC(C)(C1CCN(C(=O)C2CC2)CC1)C(O)c1cc(Cl)cc2cn[nH]c12` (stereo not shown) [Compound P-0312, (4-(1-(5-chloro-1H-indazol-7-yl)-1-hydroxy-2-methylpropan-2-yl)piperidin-1-yl)(cyclopropyl) methanone], the IC50 in test [1] (24 hours incubation), in test [2], in test [3] (24 hours incubation) and in test [4] was 0.0001 to 10 µM each time.

As for `OC(c1cc(Cl)cc2cn[nH]c12)C1CCC1` (stereo not shown) [Compound P-0116, (5-chloro-1H-indazol-7-yl)(cyclobutyl)methanol], the half-inhibitory concentration (IC50) in test [1] (24 hours incubation), in test [2], in test [3] (24 hours incubation) and in test [4] was 0.0001 to 10 µM each time.

As for `CC(C)(C)OC(=O)N1CCC(CC(O)c2cccc3cncn23)CC1` (stereo not drawn) [Compound P-0085, tert-butyl 4-(2-hydroxy-2-(imidazo[1,5-a]pyridin-5-yl)ethyl)piperidine-l-carboxylate], the 50% inhibitory concentration (IC50) in test [1] (24 hours incubation) was more than 10 µM; in test [2], 0.0001 to 10 µM; in test [3] (24 hours incubation), more than 10 µM; in test [4], 0.0001 to 10 µM.

As to `O=C(CN1CCCS1(=O)=O)N1CCC(C(F)(F)C(O)c2cc(Cl)cc3cn[nH]c23)CC1` (stereo not shown) [Compound P-0489, 1-(4-(2-(5-chloro-1H-indazol-7-yl)-1,1-difluoro-2-hydroxyethyl)piperidin-1-yl)-2-(1,1-dioxidoisothiazolidin-2-yl)ethan-1-one], the IC50 in test [1] (24 hours), in test [2], in test [3] (24 hours) and in test [4] was 0.0001 to 10 µM throughout.

Turning to `Cc1cccc(NC(=O)N2CCC(C(C)(C)C(O)c3cc(Cl)cc4cn[nH]c34)CC2)c1` (stereo not shown) [Compound P-0181, 4-(1-(5-chloro-1H-indazol-7-yl)-1-hydroxy-2-methylpropan-2-yl)-N-(m-tolyl)piperidine-1-carboxamide], the IC50 in test [1] (24 hours incubation), in test [2], in test [3] (24 hours incubation) and in test [4] was 0.0001 to 10 µM in each case.

As to `O=C(CC1CC1)N1CCC(C(F)(F)C(O)c2cc(Cl)cc3cn[nH]c23)CC1` (stereo not drawn) [Compound P-0149, 1-(4-(2-(5-chloro-1H-indazol-7-yl)-1,1-difluoro-2-hydroxyethyl)piperidin-l-yl)-2-cyclopropylethan-1-one], the IC50 in test [1] (24 hours incubation), in test [2], in test [3] (24 hours incubation) and in test [4] was 0.0001 to 10 µM in each case.

In the case of `COC(=O)N1CCC(C(C)(C)C(O)c2cc(Cl)cc3cn[nH]c23)CC1` (stereo not shown) [Compound P-0321, methyl 4-(1-(5-chloro-1H-indazol-7-yl)-1-hydroxy-2-methylpropan-2-yl)piperidine-1-carboxylate], the IC50 in test [1] (24 hours incubation), in test [2], in test [3] (24 hours incubation) and in test [4] was 0.0001 to 10 µM throughout.

For the compound `CC(C)(C1CCN(C(=O)CN2CCS(=O)(=O)CC2)CC1)[C@H](O)c1cc(Cl)cc2cn[nH]c12` [Compound P-0497, (S)-1-(4-(1-(5-chloro-1H-indazol-7-yl)-1-hydroxy-2-methylpropan-2-yl)piperidin-l-yl)-2-(1,1-dioxidothiomorpholino) ethan-1-one], the IC50 in test [1] (24 hours), in test [2], in test [3] (24 hours) and in test [4] was 0.0001 to 10 µM each time.

Take `CC(C)(C)OC(=O)N1CCC(C(O)c2cccc3cncn23)CC1` (stereo not shown) [Compound P-0076, tert-butyl 4-(hydroxy(imidazo[1,5-a]pyridin-5-yl)methyl)piperidine-1-carboxylate]: the IC50 in test [1] (24 hours incubation) is more than 10 µM; in test [2], 0.0001 to 10 µM; in test [3] (24 hours incubation), more than 10 µM; in test [4], 10 to 100 µM.

Consider `CC(C)(C1CCN(C(=O)CC2CC2)CC1)[C@H](O)c1cc(Cl)cc2cn[nH]c12` [Compound P-0530, (S)-1-(4-(1-(5-chloro-1H-indazol-7-yl)-1-hydroxy-2-methylpropan-2-yl)piperidin-1-yl)-2-cyclopropylethan-1-one], for which the IC50 in test [1] (24 hours), in test [2], in test [3] (24 hours) and in test [4] was 0.0001 to 10 µM each time.

Regarding `CCCNC(=O)N1CCC(C(C)(C)[C@H](O)c2cc(Cl)cc3cn[nH]c23)CC1` [Compound P-0567, (S)-4-(1-(5-chloro-1H-indazol-7-yl)-1-hydroxy-2-methylpropan-2-yl)-N-propylpiperidine-1-carboxamide], the IC50 in test [1] (24 hours), in test [2], in test [3] (24 hours) and in test [4] was 0.0001 to 10 µM throughout.

With `CC1(C(O)c2cc(Cl)cc3cn[nH]c23)CCC(F)(F)CC1` (stereo not shown) [Compound P-0032, (5-chloro-1H-indazol-7-yl)(4,4-difluoro-1-methylcyclohexyl)methanol], the IC50 in test [1] (24 hours incubation), in test [2], in test [3] (24 hours incubation) and in test [4] was 0.0001 to 10 µM throughout.
